The values below come from ChEMBL document CHEMBL4342408, “Therapeutic potentials of plant iridoids in Alzheimer's and Parkinson's diseases: A review” (Eur J Med Chem, 2019).

The nature of experiment [1]: Inhibition of beta secretase (unknown origin). Details: species or system Homo sapiens.
The target in experiment [2] is Microtubule-associated protein tau (Homo sapiens) (UniProt P10636). Put plainly: Inhibition of human tau (441 residues) expressed in Escherichia coli BL21(DE3) assessed as reduction in aggregation at 10 uM relative to control.
A short description of experiment [3]: Inhibition of human tau (441 residues) P301L mutant expressed in Escherichia coli BL21(DE3) assessed as reduction in aggregation.
The species named for the next experiment is Homo sapiens. In words: Inhibition of human tau (441 residues) P301L mutant expressed in Escherichia coli BL21(DE3) assessed as reduction in aggregation at 10 uM relative to control.

pIC50, pKi: −log10 of the molar value.

Chain of Microtubule-associated protein tau (Homo sapiens) (P10636 whole entry): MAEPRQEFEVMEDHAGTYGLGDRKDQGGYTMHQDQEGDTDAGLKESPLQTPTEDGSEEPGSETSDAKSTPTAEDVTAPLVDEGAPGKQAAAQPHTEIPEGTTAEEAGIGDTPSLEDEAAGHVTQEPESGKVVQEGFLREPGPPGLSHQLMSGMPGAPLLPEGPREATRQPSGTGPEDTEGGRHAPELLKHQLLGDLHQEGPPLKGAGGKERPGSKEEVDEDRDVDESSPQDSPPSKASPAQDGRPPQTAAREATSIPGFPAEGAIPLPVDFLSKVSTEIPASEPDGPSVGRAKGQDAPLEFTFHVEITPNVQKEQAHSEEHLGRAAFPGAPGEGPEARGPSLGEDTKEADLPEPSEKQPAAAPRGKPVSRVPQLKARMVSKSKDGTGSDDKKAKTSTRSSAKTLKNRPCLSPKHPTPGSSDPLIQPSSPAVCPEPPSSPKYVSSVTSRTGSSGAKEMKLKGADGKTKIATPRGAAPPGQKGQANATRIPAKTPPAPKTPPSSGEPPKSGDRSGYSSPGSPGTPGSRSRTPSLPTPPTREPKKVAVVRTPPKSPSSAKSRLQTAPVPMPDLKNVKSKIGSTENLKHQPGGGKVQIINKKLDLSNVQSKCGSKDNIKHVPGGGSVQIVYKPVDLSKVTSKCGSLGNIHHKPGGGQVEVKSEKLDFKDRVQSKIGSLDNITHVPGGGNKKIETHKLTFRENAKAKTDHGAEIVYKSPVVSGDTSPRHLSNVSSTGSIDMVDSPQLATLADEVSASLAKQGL

Compound `COC(=O)C1=CO[C@@H](O[C@@H]2O[C@H](CO)[C@@H](O)[C@H](O)[C@H]2O)[C@@H]2[C@@H](C)[C@@H](O)C[C@H]12` [LOGANIN] showed a pKi in experiment [1] of 4.26.
As to `C/C=C1/[C@H](O)OC=C(C(=O)OC)[C@H]1CC(=O)OCCc1ccc(O)c(O)c1`, the inhibition in experiment [2] was found to be 79%; in the experiment listed under Homo sapiens, 84%. Moreover, the pIC50 in experiment [3] was 5.89.

Usually pKi stands for −log10 of the Ki, conventionally taken in molar units. The term inhibition denotes the relative decrease from the control value, in per cent. One may read the pIC50 as the IC50 on a negative log10 scale, so that one unit is a factor of ten.
